Common to all, as to test: NCI-60 cell line screen, 48 h
Assay [1] deals with NCI/ADR-RES ovarian.
In assay [2] the test system is MCF7 breast.
The subject of assay [3] is OVCAR-5 ovarian.
Assay [4] concerns OVCAR-3 ovarian.
In assay [5] the test system is EKVX NSCLC.
The subject of assay [6] is RPMI-8226 leukemia.
Assay [7] relates to SNB-19 CNS.
Assay [8] concerns ACHN renal.
Assay [9] has as its system HCT-15 colon.
Assay [10] has as its system RXF 393 renal.

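Results reflect a 48-hour exposure of cells in 96-well plates to compound at five concentrations. TGI denotes the concentration required for complete inhibition of growth.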 Some results are limits rather than exact numbers.

`Cn1c2ccccc2c(=O)c2cccc(C(=O)NC(CCCN=C(N)N)C(=O)O)c21` (configuration not stated): the TGI in [1] is 96 µM; in [2], over 100 µM; in assay [3], over 100 µM; in assay [4], over 100 µM; in assay [5], over 100 µM; in assay [6] it was over 100 µM. Further, the TGI in [7], in [8] and in assay [9] was over 100 µM each time.

For the compound `Cc1ccc(S(=O)(=O)C(C#N)c2nc3ccccc3nc2-n2ccnc2)cc1` (configuration not stated), the TGI in assay [3], in [4], in assay [5], in [6], in assay [7] and in assay [8] was over 100 µM throughout. The same compound gave a TGI in assay [9] of over 100 µM.

As for `Cc1ccc(S(=O)(=O)NC(=O)N[C@@H](Cc2cnc[nH]2)C(=O)O)cc1`, the TGI in assay [1], in [10], in [2], in assay [3], in assay [6] and in assay [7] was over 100 µM in each case. Besides, the TGI in assay [8] and in assay [9] was over 100 µM each time.

For the compound `CC(C)=CCNc1ncnc2c1ncn2CCC#N`, the TGI in [1], in [10], in assay [2], in assay [3], in assay [4] and in assay [6] was over 100 µM each time. The TGI in assay [7], in [8] and in assay [9] was over 100 µM each time.

With `CN(C)c1ccc(C2SCC(=O)N2c2ccc(Oc3ccc(Cl)cc3)c(Cl)c2)cc1` (configuration not stated), the TGI is 50.7 µM in assay [1]; 89.3 µM in assay [2]; 87.7 µM in assay [3]; 79.9 µM in [4]; 60.5 µM in assay [5]; 58.1 µM in assay [6]. Moreover, the TGI was 54.8 µM in assay [7], over 100 µM in assay [8] and 55.8 µM in assay [9].

As for `COC(=O)C1CCCN1C(=O)C(Cc1cn(S(=O)(=O)c2ccc(C)cc2)cn1)NC(=O)OC(C)(C)C` (configuration not stated), the TGI in [10], in assay [2], in [3], in assay [5], in assay [6] and in assay [7] was over 100 µM throughout. The TGI in [8] and in assay [9] was over 100 µM in each case.

Consider `O=C1C(=Cc2ccccc2O)N=C(c2ccccc2)N1n1c(-c2ccccc2)nc2ccccc2c1=O`, for which the TGI in [2] is 64.3 µM; in assay [5] it was over 100 µM; in assay [6], over 100 µM; in [7] it was over 100 µM; in assay [8], 89.3 µM; in assay [9] it was over 100 µM.

As for `CC(C)NC(=O)OCCN=c1c2ccccc2ccc2ccccc12`, the TGI in [1] was over 100 µM; in assay [10], over 100 µM; in assay [2], over 100 µM; in assay [3], over 100 µM; in [4], 95.6 µM; in assay [5], over 100 µM. Also, the TGI in [7], in [8] and in assay [9] was over 100 µM in each case.

With `CCOC(=O)c1ccc(C)c(N=NN(C)C)c1`, the TGI in [10], in assay [3], in [4], in assay [5], in [6] and in assay [7] was over 100 µM in each case. For the same compound, the TGI in [8] and in assay [9] was over 100 µM each time.

For `O=C1c2ccccc2C2(c3ccc(Cl)cc3)N[C@H]3CCCC[C@@H]3N12` (some centres not stated), the TGI in [1], in assay [10], in assay [4], in assay [5], in assay [6] and in assay [7] was over 100 µM in each case. The TGI in assay [8] and in assay [9] was over 100 µM each time.

`COc1ccc2c(cnc3c4cc(OC)c(OC)cc4ccc23)c1`: the TGI in assay [1], in assay [10], in [2], in assay [3], in [4] and in assay [5] was over 100 µM each time. Besides, the TGI in assay [7], in assay [8] and in [9] was over 100 µM each time.

For the compound `CCOc1ccc(/C=C2/C(=O)N=C(NC(C)=O)N2C)cc1`, the TGI in assay [1], in assay [10], in assay [2], in assay [3], in [4] and in assay [5] was over 100 µM each time. For the same compound, the TGI in [7], in assay [8] and in [9] was over 100 µM each time.

Turning to `C=C([C@@]1(O)C[C@H]2[C@H](CCC2(OC)OC)[C@@H]2c3ccccc3O[C@@H]21)[Si](C)(C)C`, the TGI in assay [1], in assay [2], in assay [3], in assay [4], in [5] and in assay [6] was over 100 µM throughout. Further, the TGI in assay [7], in assay [8] and in [9] was over 100 µM throughout.

For the compound `CC1CCCC(CC(=O)O)(CC(=O)O)C1` (configuration not stated), the TGI in assay [1], in [2], in assay [3], in assay [5], in assay [6] and in assay [7] was over 100 µM throughout. In addition, the TGI in [8] and in assay [9] was over 100 µM throughout.

On to `O=c1c(C(c2ccc(Cl)cc2)c2c(O)c3ccccc3n(-c3ccccc3)c2=O)c(O)c2ccccc2n1-c1ccccc1`, for which the TGI is over 100 µM in assay [10]; over 100 µM in [3]; over 100 µM in [4]; 91.1 µM in assay [5]; 69.4 µM in assay [6]; over 100 µM in assay [7]. Besides, the TGI was 98.5 µM in [8] and over 100 µM in [9].

For the compound `O=C(CN(c1ccccc1)c1ccccc1)n1nnc2ccccc21`, the TGI in [10], in assay [3], in assay [4], in [5], in assay [6] and in assay [7] was over 100 µM each time. In addition, the TGI in assay [8] and in assay [9] was over 100 µM throughout.

The values above are taken from PubChem BioAssay (NCI).
